Measurements as given in PubChem BioAssay (NCI).
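1) Cells in 96-well plates. 2) Compound, 48 h, 5 concentrations. 3) Linear interpolation between surrounding doses. 4) Unreached endpoint = highest concentration. Here, GI50 denotes the concentration required for 50% inhibition of growth. TGI: total growth inhibition.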

Experiments:
Assay in all cases: NCI-60 cell line screen, 48 h
SW-620 colon = test system: SW-620 colon
RPMI-8226 leukemia = test system: RPMI-8226 leukemia
HT29 colon = test system: HT29 colon
SK-MEL-5 melanoma = test system: SK-MEL-5 melanoma
MALME-3M melanoma = test system: MALME-3M melanoma
NCI-H522 lung = test system: NCI-H522 lung
HCT-15 colon = test system: HCT-15 colon
SK-OV-3 ovarian = test system: SK-OV-3 ovarian
UACC-62 melanoma = test system: UACC-62 melanoma
PC-3 prostate = test system: PC-3 prostate

SMILES: COc1ccc(C2=NN(c3ccccc3)C[N+](c3ccc(OC)cc3)=N2)cc1
- TGI (SW-620 colon): 61 µM
- TGI (RPMI-8226 leukemia): 67.5 µM
- TGI (HT29 colon): > 100 µM
- TGI (SK-MEL-5 melanoma): 29.8 µM
- TGI (MALME-3M melanoma): 47.1 µM
- TGI (NCI-H522 lung): 30 µM
- TGI (HCT-15 colon): > 100 µM

SMILES: CC1(C)C2C=CC1(C)C1(CC2)OCCO1 (centres undefined)
- TGI (SW-620 colon): > 100 µM
- TGI (SK-OV-3 ovarian): > 100 µM
- TGI (RPMI-8226 leukemia): > 100 µM
- TGI (UACC-62 melanoma): > 100 µM
- TGI (HT29 colon): > 100 µM
- TGI (MALME-3M melanoma): > 100 µM
- TGI (HCT-15 colon): > 100 µM
- TGI (PC-3 prostate): > 100 µM

SMILES: Nc1ncnc2c1nnn2C1CCC(CP(=O)(O)O)C1 (centres undefined)
- TGI (SW-620 colon): > 100 µM
- TGI (SK-OV-3 ovarian): > 100 µM
- TGI (RPMI-8226 leukemia): > 100 µM
- TGI (UACC-62 melanoma): > 100 µM
- TGI (HT29 colon): > 100 µM
- TGI (SK-MEL-5 melanoma): > 100 µM
- TGI (MALME-3M melanoma): > 100 µM
- TGI (HCT-15 colon): > 100 µM
- TGI (PC-3 prostate): > 100 µM

SMILES: CC1(C)CC(=O)c2c(nc3ccc4ccccc4c3c2-c2ccc(NC(=O)CCCCCCCCC(=O)Nc3ccc(-c4c5c(nc6ccc7ccccc7c46)CC(C)(C)CC5=O)cc3)cc2)C1
- TGI (SW-620 colon): > 100 µM
- TGI (SK-OV-3 ovarian): > 100 µM
- TGI (RPMI-8226 leukemia): > 100 µM
- TGI (UACC-62 melanoma): > 100 µM
- TGI (HT29 colon): > 100 µM
- TGI (SK-MEL-5 melanoma): > 100 µM
- TGI (HCT-15 colon): > 100 µM
- TGI (PC-3 prostate): > 100 µM

SMILES: COc1ccc(C(=O)Cc2ccc(Br)cc2)cc1OC
- TGI (SW-620 colon): > 100 µM
- TGI (SK-OV-3 ovarian): > 100 µM
- TGI (RPMI-8226 leukemia): > 100 µM
- TGI (UACC-62 melanoma): > 100 µM
- TGI (HT29 colon): > 100 µM
- TGI (SK-MEL-5 melanoma): > 100 µM
- TGI (MALME-3M melanoma): > 100 µM
- TGI (NCI-H522 lung): > 100 µM
- TGI (HCT-15 colon): > 100 µM

SMILES: COc1cc(/C=C2/C[C@H]3[C@@H]4CC=C5C[C@@H](OC(C)=O)CC[C@]5(C)[C@H]4CC[C@]3(C)NC2=O)cc(OC)c1OC
- TGI (SW-620 colon): > 100 µM
- TGI (SK-OV-3 ovarian): 60.3 µM
- TGI (UACC-62 melanoma): 47 µM
- TGI (HT29 colon): > 100 µM
- TGI (SK-MEL-5 melanoma): > 100 µM
- TGI (MALME-3M melanoma): 60.3 µM
- TGI (NCI-H522 lung): 59.4 µM
- TGI (HCT-15 colon): > 100 µM
- TGI (PC-3 prostate): 44.3 µM

SMILES: CC1(C)[C@H]2CC[C@]1(C)[C@H](OC(=O)NNC(=O)O[C@@H]1C[C@@H]3CC[C@@]1(C)C3(C)C)C2
- TGI (SW-620 colon): 72.9 µM
- TGI (SK-OV-3 ovarian): 28.6 µM
- TGI (RPMI-8226 leukemia): 30.7 µM
- TGI (UACC-62 melanoma): 38.8 µM
- TGI (HT29 colon): 20.9 µM
- TGI (SK-MEL-5 melanoma): 25.5 µM
- TGI (MALME-3M melanoma): 33.8 µM
- TGI (NCI-H522 lung): 30.7 µM
- TGI (HCT-15 colon): 27.5 µM

SMILES: C[C@H]1C[C@H]2[C@@H]3C(C)(C)O[C@]4(O)C(=O)[C@]5(O)[C@@H](C)CC[C@H]1[C@]25C(=O)[C@]34C
- TGI (SW-620 colon): > 100 µM
- TGI (SK-OV-3 ovarian): > 100 µM
- TGI (RPMI-8226 leukemia): 45.8 µM
- TGI (UACC-62 melanoma): > 100 µM
- TGI (HT29 colon): 70.3 µM
- TGI (SK-MEL-5 melanoma): 81.7 µM
- TGI (NCI-H522 lung): 48 µM
- TGI (HCT-15 colon): > 100 µM
- TGI (PC-3 prostate): > 100 µM

SMILES: C/C(Nc1ccc(F)cc1)=C1/CCOC1=O
- TGI (SW-620 colon): > 100 µM
- TGI (RPMI-8226 leukemia): > 100 µM
- TGI (UACC-62 melanoma): > 100 µM
- TGI (HT29 colon): > 100 µM
- TGI (SK-MEL-5 melanoma): > 100 µM
- TGI (MALME-3M melanoma): > 100 µM
- TGI (NCI-H522 lung): > 100 µM
- TGI (HCT-15 colon): > 100 µM
- TGI (PC-3 prostate): > 100 µM

SMILES: O=C1c2cc3c(cc2CC12Cc1ccc4c(c1C2=O)CCCC4)CCCC3 (centres undefined)
- TGI (SW-620 colon): > 100 µM
- TGI (SK-OV-3 ovarian): 87.4 µM
- TGI (RPMI-8226 leukemia): > 100 µM
- TGI (HT29 colon): > 100 µM
- TGI (SK-MEL-5 melanoma): > 100 µM
- TGI (MALME-3M melanoma): > 100 µM
- TGI (NCI-H522 lung): > 100 µM
- TGI (HCT-15 colon): > 100 µM
- TGI (PC-3 prostate): > 100 µM

SMILES: CN(C(=O)c1ccco1)C(=S)N1CCN(c2ccccc2)CC1
- TGI (SW-620 colon): > 100 µM
- TGI (SK-OV-3 ovarian): > 100 µM
- TGI (RPMI-8226 leukemia): > 100 µM
- TGI (UACC-62 melanoma): > 100 µM
- TGI (HT29 colon): > 100 µM
- TGI (SK-MEL-5 melanoma): > 100 µM
- TGI (MALME-3M melanoma): > 100 µM
- TGI (NCI-H522 lung): > 100 µM
- TGI (HCT-15 colon): > 100 µM

SMILES: COc1ccccc1NC(=O)CC(=O)N1N=C(C)C(N=Nc2ccc(C(=O)O)cc2)C1=O (centres undefined)
- TGI (SW-620 colon): > 100 µM
- TGI (RPMI-8226 leukemia): > 100 µM
- TGI (UACC-62 melanoma): > 100 µM
- TGI (HT29 colon): > 100 µM
- TGI (SK-MEL-5 melanoma): > 100 µM
- TGI (MALME-3M melanoma): > 100 µM
- TGI (NCI-H522 lung): > 100 µM
- TGI (HCT-15 colon): > 100 µM
- TGI (PC-3 prostate): > 100 µM

SMILES: O=C(c1cc(Cl)ccc1Cl)N1CCN(C(=O)c2cc(Cl)ccc2Cl)CC1
- TGI (SW-620 colon): > 100 µM
- TGI (RPMI-8226 leukemia): > 100 µM
- TGI (HT29 colon): > 100 µM
- TGI (SK-MEL-5 melanoma): > 100 µM
- TGI (MALME-3M melanoma): > 100 µM
- TGI (NCI-H522 lung): > 100 µM
- TGI (HCT-15 colon): > 100 µM
- TGI (PC-3 prostate): > 100 µM

SMILES: CCOC(=O)c1cc2c(C(=O)c3ccc([N+](=O)[O-])cc3)c(C(C)=O)ccc2[nH]1
- TGI (SW-620 colon): > 100 µM
- TGI (SK-OV-3 ovarian): 51.3 µM
- TGI (RPMI-8226 leukemia): > 100 µM
- TGI (UACC-62 melanoma): > 100 µM
- TGI (HT29 colon): > 100 µM
- TGI (SK-MEL-5 melanoma): > 100 µM
- TGI (NCI-H522 lung): 36.5 µM
- TGI (HCT-15 colon): > 100 µM
- TGI (PC-3 prostate): > 100 µM

SMILES: CC(=O)Nc1ccc(OC2=CCN(C)CC2)cc1
- TGI (SW-620 colon): > 100 µM
- TGI (SK-OV-3 ovarian): > 100 µM
- TGI (RPMI-8226 leukemia): > 100 µM
- TGI (UACC-62 melanoma): > 100 µM
- TGI (HT29 colon): > 100 µM
- TGI (SK-MEL-5 melanoma): > 100 µM
- TGI (MALME-3M melanoma): > 100 µM
- TGI (HCT-15 colon): > 100 µM
- TGI (PC-3 prostate): > 100 µM

SMILES: COc1ccc(-n2c(=O)n(C)c(=O)n2-c2ccc(OC)cc2)cc1
- TGI (SW-620 colon): > 100 µM
- TGI (SK-OV-3 ovarian): > 100 µM
- TGI (RPMI-8226 leukemia): > 100 µM
- TGI (UACC-62 melanoma): > 100 µM
- TGI (HT29 colon): > 100 µM
- TGI (SK-MEL-5 melanoma): > 100 µM
- TGI (HCT-15 colon): > 100 µM
- TGI (PC-3 prostate): > 100 µM

SMILES: COC(=O)[C@H]1CO[C@H]2C/C(C)=C/CC/C(C)=C/CC[C@@]3(C)O[C@@H]3C[C@H]21
- TGI (SW-620 colon): 24.2 µM
- TGI (SK-OV-3 ovarian): > 50 µM
- TGI (RPMI-8226 leukemia): > 50 µM
- TGI (UACC-62 melanoma): 18.2 µM
- TGI (HT29 colon): > 50 µM
- TGI (SK-MEL-5 melanoma): 15.5 µM
- TGI (NCI-H522 lung): 18.8 µM
- TGI (HCT-15 colon): 19.9 µM
- TGI (PC-3 prostate): > 50 µM

SMILES: COc1ccc(-c2cc(-c3ccc(Nc4ccnc5cc(Cl)ccc45)cc3)[nH]c(=O)c2C#N)c2ccccc12
- TGI (SW-620 colon): > 100 µM
- TGI (SK-OV-3 ovarian): 43.7 µM
- TGI (RPMI-8226 leukemia): 7.28 µM
- TGI (UACC-62 melanoma): 46.7 µM
- TGI (SK-MEL-5 melanoma): > 63.4 µM
- TGI (MALME-3M melanoma): 8.01 µM
- TGI (HCT-15 colon): > 100 µM
- TGI (PC-3 prostate): > 100 µM

SMILES: CCCCCC(C)SC1(C(=O)OC)CC(OC(C)=O)C(NC(C)=O)C([C@H](OC(C)=O)[C@@H](COC(C)=O)OC(C)=O)O1 (some centres undefined)
- TGI (SW-620 colon): > 100 µM
- TGI (RPMI-8226 leukemia): > 100 µM
- TGI (HT29 colon): > 100 µM
- TGI (SK-MEL-5 melanoma): > 100 µM
- TGI (MALME-3M melanoma): > 100 µM
- TGI (NCI-H522 lung): > 100 µM
- TGI (HCT-15 colon): > 100 µM
- TGI (PC-3 prostate): > 100 µM

SMILES: O=c1[nH]nc(-c2ccccc2)n1/N=C/c1cccnc1
- TGI (SW-620 colon): > 100 µM
- TGI (RPMI-8226 leukemia): > 100 µM
- TGI (HT29 colon): > 100 µM
- TGI (SK-MEL-5 melanoma): > 100 µM
- TGI (MALME-3M melanoma): > 100 µM
- TGI (NCI-H522 lung): > 100 µM
- TGI (HCT-15 colon): > 100 µM
- TGI (PC-3 prostate): > 100 µM

SMILES: CCOP(=O)(OCC)C1CC(n2cc(C)c(=O)[nH]c2=O)OC1CO (centres undefined)
- TGI (SW-620 colon): > 100 µM
- TGI (RPMI-8226 leukemia): > 100 µM
- TGI (UACC-62 melanoma): > 100 µM
- TGI (HT29 colon): > 100 µM
- TGI (SK-MEL-5 melanoma): > 100 µM
- TGI (MALME-3M melanoma): > 100 µM
- TGI (NCI-H522 lung): > 100 µM
- TGI (HCT-15 colon): > 100 µM
- TGI (PC-3 prostate): > 100 µM

SMILES: COc1ccc(C(=O)/C=C/c2c(Cl)c3c(c(OC)c2Cl)OCC(=O)N3)cc1
- GI50 (SW-620 colon): 1.81 µM
- TGI (SW-620 colon): 3.66 µM
- GI50 (SK-OV-3 ovarian): 3.59 µM
- TGI (SK-OV-3 ovarian): 27.1 µM
- GI50 (RPMI-8226 leukemia): 1.07 µM
- TGI (RPMI-8226 leukemia): 4.07 µM
- GI50 (UACC-62 melanoma): 1.68 µM
- TGI (UACC-62 melanoma): 3.59 µM
- GI50 (MALME-3M melanoma): 2.28 µM
- TGI (MALME-3M melanoma): 4.99 µM
- GI50 (NCI-H522 lung): 1.55 µM
- TGI (NCI-H522 lung): 3.24 µM
- GI50 (HCT-15 colon): 2.01 µM
- TGI (HCT-15 colon): 6.14 µM
